According to ChEMBL document CHEMBL3785076, “Disposition of valproic acid in man” (Eur J Clin Pharmacol, 1977):

Columns and labels:
[1] = Half life in human measured over 24 hrs; format: ADME, organism-based; details: in vivo
[2] = AUC in healthy human subjects (6 subjects) at 600 mg, po administered as single enteric-coated compound dose measured by GLC method; format: ADME, organism-based; details: in vivo
[3] = Total plasma clearance in healthy human subjects (6 subjects) at 600 mg, po administered as single enteric-coated compound dose measured by GLC method; format: ADME, organism-based
[4] = Plasma concentration in healthy human subjects (6 subjects) at 600 mg, po administered as single enteric-coated compound dose measured after 48 hrs by GLC method; format: ADME, organism-based
[5] = Plasma concentration in healthy human subjects (6 subjects) at 600 mg, po administered as single enteric-coated compound dose measured after 10 hrs by GLC method; format: ADME, organism-based
[6] = Plasma concentration in healthy human subjects (6 subjects) at 600 mg, po administered as single enteric-coated compound dose measured after 4 hrs by GLC method; format: ADME, organism-based
[7] = Ratio of urinary excretion of valproic acid to urinary excretion of VPA-conjugates in healthy human subjects (6 subjects) at 600 mg, po administered as single enteric-coated compound; format: ADME, organism-based, Urine; details: in vivo
[8] = Plasma concentration in healthy human subjects (6 subjects) at 600 mg, po administered as single enteric-coated compound dose measured after 2 hrs by GLC method; format: ADME, organism-based
[9] = Terminal half life in healthy human subjects (6 subjects) at 600 mg, po administered as single enteric-coated compound dose measured by GLC method; format: ADME, organism-based; details: in vivo, read-out: beta t1/2 (converted)
Homo sapiens [10] = assay: Drug lag time in healthy human subjects (6 subjects) at 600 mg, po administered as single enteric-coated compound dose measured by GLC method; format: ADME, organism-based; details: in vivo
[11] = Elimination rate constant during beta-phase in healthy human subjects (6 subjects) at 600 mg, po administered as single enteric-coated compound dose measured by GLC method; format: ADME, organism-based; details: in vivo
[12] = Drug concentration in saliva of healthy human subjects (6 subjects) at 1200 mg, po for 12 days administered as enteric-coated compound dose measured under steady state conditions by GLC method relative to plasma drug level; format: ADME, organism-based; details: in vivo, 288 h
[13] = Drug concentration in saliva of healthy human subjects (6 subjects) at 600 mg, po administered as single enteric-coated compound; format: ADME, organism-based; details: in vivo
[14] = Plasma concentration in healthy human subjects (6 subjects) at 600 mg, po administered as single enteric-coated compound dose measured after 24 hrs by GLC method; format: ADME, organism-based
[15] = Plasma concentration in healthy human subjects (6 subjects) at 600 mg, po administered as single enteric-coated compound dose measured after 6 hrs by GLC method; format: ADME, organism-based
[16] = Plasma concentration in healthy human subjects (6 subjects) at 600 mg, po administered as single enteric-coated compound dose measured after 72 hrs by GLC method; format: ADME, organism-based
[17] = Ratio of urinary excretion of valproic acid to urinary excretion of VPA-conjugates in healthy human subjects (6 subjects) at 1200 mg, po for 12 days administered as enteric-coated compound dose measured during 24 hrs relative to total drug excretion; format: ADME, organism-based, Urine; details: in vivo
Homo sapiens [18] = assay: Mean steady state plasma concentration in healthy human subjects (6 subjects) at 1200 mg, po for 12 days administered as enteric-coated compound dose by GLC method; format: ADME, organism-based; details: in vivo, 288 h
[19] = Tmax in healthy human subjects (6 subjects) at 600 mg, po administered as single enteric-coated compound dose measured by GLC method; format: ADME, organism-based; details: in vivo
[20] = Plasma protein binding in healthy human subjects (6 subjects) measured under steady state conditions by equilibrium dialysis method; format: ADME, cell-free; details: read-out: PPB (converted)
Homo sapiens [21] = assay: Apparent volume of distribution in healthy human subjects (6 subjects) at 600 mg, po administered as single enteric-coated compound dose measured by GLC method; format: ADME, organism-based; details: in vivo
[22] = Steady state plasma concentration before morning dose in healthy human subjects (6 subjects) at 1200 mg, po for 12 days administered as enteric-coated compound dose by GLC method; format: ADME, organism-based; details: read-out: Cpss
[23] = Plasma concentration in healthy human subjects (6 subjects) at 600 mg, po administered as single enteric-coated compound dose measured after 30 hrs by GLC method; format: ADME, organism-based
[24] = Plasma protein binding in healthy human subjects (6 subjects) assessed as unbound fraction level measured under steady state conditions by equilibrium dialysis method; format: ADME, cell-free
[25] = Half life at steady state in healthy human subjects (6 subjects) at 1200 mg, po for 12 days administered as enteric-coated compound dose by GLC method; format: ADME, organism-based; details: in vivo, read-out: t1/2ss (converted)
[26] = Plasma concentration in healthy human subjects (6 subjects) at 600 mg, po administered as single enteric-coated compound dose measured after 3 hrs by GLC method; format: ADME, organism-based

CCCC(CCC)C(=O)[O-].[Na+] [VALPROATE SODIUM]
half-life [1]: 8 h | AUC [2]: 1210 µg·h/mL | CL/F [3]: 0.107 mL/min/kg | concentration at 48 h [4]: 6500 ng/mL | concentration at 10 h [5]: 38400 ng/mL | concentration at 4 h [6]: 58100 ng/mL | Ratio [7]: 0.158 | concentration at 2 h [8]: 10300 ng/mL | half-life [9]: 15.9 h | Tlag (Homo sapiens [10]): 1.3 h | k el [11]: 1.25e-05 s⁻¹ | Drug uptake [12]: 1.3% | Drug uptake [13]: < 0.5 µg/mL | concentration at 24 h [14]: 17600 ng/mL | concentration at 6 h [15]: 53200 ng/mL | concentration at 72 h [16]: 2500 ng/mL | Ratio [17]: 1.127 | Cpss (Homo sapiens [18]): 81.3 µg/mL | Tmax [19]: 3.7 h | fraction unbound [20]: 0.067 | Vbeta (Homo sapiens [21]): 0.15 L/kg | concentration at 288 h [22]: 75300 ng/mL | concentration at 30 h [23]: 14000 ng/mL | fraction unbound [24]: 0.067 | half-life [25]: 17.3 h | concentration at 3 h [26]: 42800 ng/mL
